This is an account of results in PMC9598311, “Identification of a Small Molecule That Inhibits the Interaction of LPS Transporters LptA and LptC” (Antibiotics, 2022).

The target in test [1] is T1, LptA (Escherichia coli, UniProt P0ADV1).
T1 construct: synthetic gene in pET-28a, N-terminal 6-His tag, expressed in E. coli BL21(DE3), His-Trap purified
T1 sequence (P0ADV1 28-185): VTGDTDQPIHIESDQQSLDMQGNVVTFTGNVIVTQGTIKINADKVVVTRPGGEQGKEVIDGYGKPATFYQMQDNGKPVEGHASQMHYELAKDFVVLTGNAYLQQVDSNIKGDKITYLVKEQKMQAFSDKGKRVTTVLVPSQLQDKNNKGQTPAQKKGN
In words: SPR, LptA immobilized on carboxymethyl dextran chip. It counts as binding. The text has this:
SPR, LptA immobilized on carboxymethyl dextran chip on LptA
(In general: SPR reads the build-up and loss of mass on a sensor chip optically.)

Test [2] concerns the target T2, LptC (Escherichia coli, UniProt P0ADV9).
T2 construct: synthetic gene in pET-28a, N-terminal 6-His tag, expressed in E. coli BL21(DE3), His-Trap purified
T2 sequence (P0ADV9 1-191): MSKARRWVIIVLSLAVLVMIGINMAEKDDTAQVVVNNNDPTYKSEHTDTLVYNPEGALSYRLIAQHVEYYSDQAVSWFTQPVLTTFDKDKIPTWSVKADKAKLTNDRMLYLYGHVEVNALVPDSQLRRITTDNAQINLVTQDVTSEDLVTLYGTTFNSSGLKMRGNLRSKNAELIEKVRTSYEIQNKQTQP
The test can be described thus: SPR, LptC immobilized on carboxymethyl dextran chip. The format is binding. The text has this:
SPR, LptC immobilized on carboxymethyl dextran chip on LptC

For test [3], the system named is T3, LptA/LptC.
T3 construct: complex formed on chip: LptC immobilized, LptA in solution; both N-terminal 6-His tagged, expressed in E. coli BL21(DE3)
In words: SPR, LptA preincubated with compound passed over immobilized LptC. As to conditions: inhibition of LptA/LptC protein-protein interaction; LptA 15 ug/mL, compound 0-4 ug/mL, PBST. It counts as binding, Escherichia coli.

The target in test [4] is T4, LptC protein with a 6-His tag at the N-terminal (Escherichia coli) (UniProt P0ADV9).
T4 sequence (P0ADV9 whole entry, looked up): T2 sequence (P0ADV9 1-191)
In words: SPR; Reichert SPR system; LptC immobilised on a mixed self-assembled monolayer (SAM) sensor chip; LptA 0.164 µM to 2.624 µM in PBST (0.01 M Na Phosphate, 0.15 M NaCl, 0.05% Tween 20) passed over; regeneration 1 M NaCl 90 s; TraceDrawer 1.7.1.

On to `CN(C)c1ccc(/C=C/c2cc(C(C)(C)C)[o+]c(C(C)(C)C)c2)cc1` [IMB-0042], for which the results for the Kd in test [1] and in test [2] were 4.67 µM and 32.6 µM, respectively. Further, in test [3], the “SPR, LptA preincubated with compound passed over immobilized LptC” value is on record as “Compound IMB-0042 blocked LptA/LptC interaction”.

B1: LptA protein with a 6-His tag at the N-terminal (natural protein)
chain: T1 sequence (P0ADV1 28-185)
In the case of B1, in test [4], the Kd turned out to be 2.28 µM, the koff is 0.385 s⁻¹ and the kon was 169000 M⁻¹ s⁻¹.

The Kd is the equilibrium constant for the complex coming apart. By koff is commonly meant the first-order rate constant of dissociation. The term kon denotes the rate constant with which the complex forms. Low readings indicate slow association, high ones fast association.
